BigSolDB 2.1

Conditions: in n-octanol

| solubility (mole fraction) (293.15 K) | solubility (mole fraction) (298.15 K) | solubility (mole fraction) (303.15 K) | solubility (mole fraction) (308.15 K) | solubility (mole fraction) (313.15 K) | solubility (mole fraction) (318.15 K) | solubility (mole fraction) (323.15 K) | solubility (mole fraction) (328.15 K) | solubility (mole fraction) (333.15 K) | Compound |
| --- | --- | --- | --- | --- | --- | --- | --- | --- | --- |
| 2.17e-06 | 2.76e-06 | 3.55e-06 | 4.58e-06 | 5.88e-06 | 7.63e-06 | 9.91e-06 | 1.3e-05 | 1.68e-05 | CCn1cc(C(=O)O)c(=O)c2cc(F)c(N3CCNC(C)C3)c(F)c21 (configuration not stated) |
| 9.14e-07 | 1.2e-06 | 1.57e-06 | 2.03e-06 | 2.6e-06 | 3.25e-06 | 4.05e-06 | 4.97e-06 | 6.02e-06 | CCn1cc(C(=O)O)c(=O)c2cnc(N3CCNCC3)nc21 |
| 5.17e-05 | 6.62e-05 | 8.54e-05 | 0.000108 | 0.00014 | 0.000177 | 0.000224 | 0.000284 | 0.000352 | CCn1cc(C(=O)O)c(=O)c2cc(F)c(N3CCNCC3)cc21 |
